One experiment has as its target T1, canine TRPM8 (Canis lupus familiaris, UniProt Q1A7N1).
T1 construct: expressed in transfected cells
The experiment is described as follows: In vitro canine TRPM8 functional assay (Ca2+-sensitive dye, FLIPR/FDSS, icilin activation). Type of experiment: cell-based. As to conditions: HEK293 cells expressing canine TRPM8, icilin activation; for inhibition at 0.5 µM: HEK293, 0.5 μM compound, read-out: % I (0.5 μM); for IC50: eight-point dose-response, read-out: IC50. In a few lines:
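HEK293 cells stably expressing canine TRPM8, loaded with Calcium 3 dye, preincubated with compound for 5 min before icilin at a concentration giving ~80% maximal response. Ca2+ fluorescence by FLIPR or FDSS; basal-subtracted, normalized to % maximal response, quadruplicate wells, sigmoidal fit for EC50/IC50.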

The subject of another experiment is Male Sprague Dawley rats. The experiment is described as follows: Inhibition of icilin-induced wet-dog shakes in rats. Type of experiment: in vivo. The conditions noted are these: rat, 15′ pre icilin.
For another experiment, the system named is Sprague-Dawley rats. The experiment is described as follows: CFA-induced paw radiant heat hypersensitivity. Type of experiment: in vivo, rat. The conditions noted are these: po, rat; for inhibition in vivo at 30 mg/kg: 30 mg/kg p.o., read-out: % Reversal.
The test system of the next experiment is mice. The experiment is described as follows: CFA-induced paw cold hypersensitivity (acetone-evoked paw licking). The format is in vivo. As to conditions: mouse; 60 mg/kg p.o.; time 30′; acetone licking duration vs vehicle. The method, then:
Prior to intraplantar CFA injection mice were placed individually in elevated observation chambers having wire mesh floors. Through the mesh floor a series of three applications of acetone (0.04 mL/application) was sprayed onto the bottom of the paw using a multidose syringe device. A positive response took the form of an abrupt withdrawal and licking of the paw. The cumulative duration of licking was recorded for each of the three trials which were then averaged to give the individual's response. Twenty-four hours following CFA injection acetone licking durations were markedly elevated implying a hypersensitivity to cooling. A test compound of Formula (I) was assessed for its ability to return acetone-evoked paw licking durations to pre-CFA levels (typically near zero) following systemic administration. Percent inhibition was calculated % inhibition=[1−(treatment licking duration/vehicle licking duration)]×100.

In another experiment the test system is Male Sprague-Dawley rats. The experiment is described as follows: Cold pressor test in anesthetized rat. Type of experiment: in vivo. The conditions noted are these: 6 mg/kg i.v., time 10′, mean arterial pressure change on forelimb ice. The procedure: Compounds of Formula (I) can be tested in animals and humans for their ability to mitigate cardiovascular pressor responses evoked by cold exposure. The clinical cold pressor test assesses changes in blood pressure (BP) and cold pain perception during a 2-3 minute immersion of one hand into ice water. This test may be utilized to characterize analgesic compounds (Koltzenberg M et al. Pain. 2006, 126(1-3): 165-74) and to assess cold hypersensitivity (Desmeules J A et al. Arthritis Rheum. 2003, 48(5): 1420-9). A compound of Formula (I) was studied in an anesthetized rat cold pressor paradigm to determine whether TRPM8 antagonism would interfere with the blood pressure pressor response to cold stimulation of the forepaws. Male Sprague-Dawley rats (300-450 g) anesthetized with sodium pentobarbital were instrumented with a jugular catheter and an indwelling carotid artery pressure transducer. Vehicle (10% Solutol in water) or test compound was infused (1 mL/kg) over one minute through the intravenous catheter. […] Percent changes in mean arterial pressure in response to this cold stimulus were calculated for vehicle and test compound pretreatments. Percent inhibition attributed to treatment with test compound was then determined using the following formula: % Inhibition=[1−(cold evoked % change in BP post-test compound/cold evoked % change in BP post-vehicle)]×100.

Where two headings read alike, the source gives them in different places.

T1 sequence (Q1A7N1 1-1104): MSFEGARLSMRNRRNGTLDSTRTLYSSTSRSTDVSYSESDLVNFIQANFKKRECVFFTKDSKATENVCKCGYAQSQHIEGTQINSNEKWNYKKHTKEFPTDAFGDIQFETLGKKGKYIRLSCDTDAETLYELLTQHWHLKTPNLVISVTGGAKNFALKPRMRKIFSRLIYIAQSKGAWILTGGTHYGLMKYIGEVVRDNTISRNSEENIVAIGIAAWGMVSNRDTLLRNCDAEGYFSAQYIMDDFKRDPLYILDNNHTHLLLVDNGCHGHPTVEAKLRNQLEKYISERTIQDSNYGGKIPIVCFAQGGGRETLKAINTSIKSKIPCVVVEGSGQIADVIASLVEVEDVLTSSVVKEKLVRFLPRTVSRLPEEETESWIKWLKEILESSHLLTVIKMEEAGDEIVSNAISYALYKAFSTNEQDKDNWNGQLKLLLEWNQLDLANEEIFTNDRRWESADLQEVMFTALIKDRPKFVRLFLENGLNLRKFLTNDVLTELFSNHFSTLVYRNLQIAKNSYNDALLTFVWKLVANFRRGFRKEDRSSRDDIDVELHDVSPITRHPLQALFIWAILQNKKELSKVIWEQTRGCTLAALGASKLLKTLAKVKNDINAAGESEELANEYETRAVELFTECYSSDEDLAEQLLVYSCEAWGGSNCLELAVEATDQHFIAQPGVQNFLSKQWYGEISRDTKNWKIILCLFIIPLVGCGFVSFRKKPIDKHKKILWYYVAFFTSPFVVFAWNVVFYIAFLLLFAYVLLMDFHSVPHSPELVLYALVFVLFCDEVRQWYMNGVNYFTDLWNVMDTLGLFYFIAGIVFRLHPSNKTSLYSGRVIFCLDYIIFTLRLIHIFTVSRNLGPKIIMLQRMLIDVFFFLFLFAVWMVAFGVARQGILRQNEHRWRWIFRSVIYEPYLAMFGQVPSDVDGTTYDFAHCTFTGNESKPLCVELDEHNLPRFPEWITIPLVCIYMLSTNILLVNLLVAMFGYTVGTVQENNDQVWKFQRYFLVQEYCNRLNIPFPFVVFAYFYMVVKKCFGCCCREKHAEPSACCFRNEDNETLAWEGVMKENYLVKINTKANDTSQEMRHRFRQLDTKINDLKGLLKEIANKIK

In general, IC50 refers to the concentration that gives 50% inhibition. In general, ED50 refers to the midpoint of the dose-response relation. For orientation: % Inhibition means the share of the control response that was lost under treatment. Higher therefore signals a strong effect. Turning to `CC(C)OP(=O)(OC(C)C)[C@@H](Cc1ccc(F)c(F)c1)c1sc2ccccc2c1Br` [Cpd 234, (S)-[1-(3-Bromo-benzo[b]thiophen-2-yl)-2-(3,4-difluoro-phenyl)-ethyl]-phosphonic acid diisopropyl ester], the inhibition at 0.5 µM at canine TRPM8 was determined as 104%. Moreover, at canine TRPM8, the half-inhibitory concentration (IC50) came out at 29 nM. In addition, the ED50 in the experiment on Male Sprague Dawley rats (po) was found to be 24.3 mg/kg; in the experiment on Sprague-Dawley rats (p.o., read-out: ED50) it was 6.6 mg/kg. Moreover, the “% Inhibition” value is 14.2% with Male Sprague Dawley rats (10 mg/kg p.o.), 68.0% in the experiment with Male Sprague Dawley rats (30 mg/kg p.o.) and 92.9% in the experiment on Male Sprague Dawley rats (100 mg/kg p.o.). In addition, the inhibition in vivo at 30 mg/kg was determined as 75% in the experiment with Sprague-Dawley rats (time 1 h) and 56% in the experiment on Sprague-Dawley rats (time 2 h (printed 2 h or 2)).
Take `CC(C)OP(=O)(OC(C)C)[C@@H](Cc1ccc(F)c(C(F)(F)F)c1)c1sc2ccccc2c1Br` [Cpd 242, (S)-[1-(3-Bromo-benzo[b]thiophen-2-yl)-2-(4-fluoro-3-trifluoromethyl-phenyl)-ethyl]-phosphonic acid diisopropyl ester]: on canine TRPM8, the inhibition at 0.5 µM turned out to be 103% and the 50% inhibitory concentration (IC50) came out at 9 nM. Besides, the “% I” value in the experiment with mice was 84%. Moreover, the “% I (inhibition of cold-induced pressor response)” value in the experiment on Male Sprague-Dawley rats worked out at 54%.

The values above are taken from patent US20080287398A1, “COLD MENTHOL RECEPTOR-1 ANTAGONISTS” (priority 2007, published 2008).
